SMILES | melting point [°C]
Nc1cc(-c2ccccc2)nc(N)n1 | 153 to 155
O=C(O)CNC1CCCC1 | 210 to 212
O=S(=O)(Cl)c1ccc(OCC(F)(F)F)nc1 | 55 to 57
Sc1nnnn1-c1ccc2c(c1)OCO2 | 157 to 159
CCN1N=C(c2ccccc2)CC1=O | 140 to 142
COc1cc(OC)c2cc(CCCN)[nH]c2c1 | 113 to 115
N#CC(N)c1cccc(Cl)c1Cl (stereo unspecified) | 114 to 116
NNC(=O)C1COCCO1 (stereo unspecified) | 106 to 108
O=C(CC1CCCC1)c1ccc(Oc2ccccc2)cc1 | 30 to 32
O=C(O)CCNS(=O)(=O)c1ccc2c(c1)CCCC2 | 106 to 110
CCN(CC)S(=O)(=O)c1ccc(OC(C)C)c(N)c1 | 89 to 91
COC1(OC)C2(Cl)C3C(=O)C4C5C(=O)C3C1(Cl)C5(Cl)C42Cl (stereo unspecified) | 155 to 157
CCc1nnsc1C(=O)NC1CCCCC1 | 80 to 82
O=C(NC1CCCCNC1=O)OCC(F)(F)F (stereo unspecified) | 199 to 201
NC(=S)N1CCN(c2nccs2)CC1 | 179 to 181
Fc1ccc(NCc2ccccn2)c(F)c1 | 52 to 54
CCOc1ccc(NC(=O)CCl)cc1S(=O)(=O)N1CCCCC1 | 129 to 131
CCc1ccc(C(=O)c2ccc([N+](=O)[O-])cc2)o1 | 76 to 78
O=C(O)c1cccn1-c1cccc(I)c1 | 165 to 167

SMILES | melting point [°C]
CC(C)c1ccc(O)c(C(=O)O)c1 | 123 to 125
CC1CC(N)=NO1 (stereo unspecified) | 95 to 97
COc1ccc(-c2nc(N)cc(=O)[nH]2)cc1 | 271 to 273
Nc1ccc2oc(=O)[nH]c2c1 | 204 to 206
O=C(O)CC1(CC(=O)c2ccc(Cl)s2)CCCCC1 | 102 to 104
O=Cc1cnn(Cc2ccccc2)c1 | 43 to 45
CC1(c2ccc(S(C)(=O)=O)cc2)NC(=O)NC1=O (stereo unspecified) | 228 to 230
COC(=O)c1ccc(C#N)cc1OC | 101 to 103
O=C(O)Cn1c(SC(F)F)nc2ccccc21 | 188 to 203
CC(C)(N)CN1CCN(c2ccccc2)CC1 | 84 to 86
FC(F)Oc1ccccc1-c1noc(CCl)n1 | < 17
O=C(O)CNC(=O)c1ccccc1C(F)(F)F | 152 to 154
Cc1nn(C)c(C)c1C(CC(=O)O)C(F)(F)F (stereo unspecified) | 130 to 132
Nc1ccccc1-c1[nH]nc2c1CCC2 | 128 to 130
CCCCCc1cc(N)on1 | 40 to 42
O=C(O)c1sc2ccccc2c1CSc1ccccc1Cl | 183 to 185
Nc1ccnc(OCC(F)(F)F)c1 | 39 to 41
CSc1noc(N)n1 | 100 to 102
COc1cc(SC)ccc1C(=O)O | 111 to 114

SMILES | melting point [°C]
Cc1ccc(/C=C/C(=O)O)c(C)c1 | 182 to 184
O=C(O)CCC(NC(=O)c1ccccc1)C(=O)O (stereo unspecified) | 133 to 135
CCC(=O)NCc1cc(S(N)(=O)=O)ccc1OC | 119 to 121
CC(C)(C)OC(=O)NCC1CCCC1N (stereo unspecified) | 43 to 45
CN(c1ccc(O)cc1)S(=O)(=O)c1ccccc1F | 100 to 102
CCn1cc(S(=O)(=O)Cl)nc1C | 65 to 67
CC(=O)c1ccc(N2CCCC2)c(F)c1 | 36 to 38
Cc1ccc(S(=O)(=O)NC(C)C)cc1C(=O)O | 162 to 164
Cc1ccn2c(N)c(-c3ccc(F)cc3)nc2c1 | 188 to 190
O=C(O)C1(c2cccc(C(F)(F)F)c2)CCCCC1 | 144 to 146
CC(=O)c1ccc(-c2ccncc2)cc1 | 93 to 95
Cn1c(C(=O)O)cc2c(=O)n3ccccc3nc21 | 288 to 290
O=C(O)c1cc(Br)cc2ccccc12 | 229 to 231
CC(=O)c1ccc(S(=O)(=O)N2CCCCCC2)cc1 | 73 to 77
O=C(O)c1conc1-c1ccc(Cl)cc1 | 182 to 184
COc1ccc(Cn2[nH]ccc2=N)c(OC)c1 | 76 to 78
C#Cc1cccc(NC(=O)NC(=O)CCl)c1 | 185 to 187
CC(=O)Nc1cccc(NC(=O)C(Br)C(C)C)c1 (stereo unspecified) | 179 to 181

— a melting point compilation (Tetko et al.)
